Measured values reported in US20220064647A1, “COMPOSITIONS AND METHODS FOR TREATING CYSTIC FIBROSIS” (SpliSense Ltd., priority 2019, published 2022).

Target: T1, CFTR del Ex24 (Homo sapiens, UniProt P13569, DEL1292-1321)
T1 construct: expressed in transfected cells; host or cells: HEK 293 cells, transient transfection with Lipofectamine 2000
Assay: FLIPR membrane potential assay of CFTR function
Assay type: cell-based
Settings: HEK 293 cells transiently transfected with CFTR del Ex24; activated by forskolin 10 uM; FIG. 1B
Experimental: HEK cells were transiently transfected with a construct bearing a CFTR transcript having exon 24 completely deleted from it (CFTR del Ex24). Transfection was carried out using Lipofectamine 2000 transfection reagent (Invitrogen) according to the lipofectamine 2000 reagent protocol using the following lipofectamine amounts: 96 well—0.15 μl, 6 well—3 μl, 10 mm plate—15 μl. HEK cells transfected with the CFTR del Ex24 construct were grown in 96-well (black, flat bottom; corning) plates. 48 hr post-transfection, CFTR channel function was analyzed using the FLIPR membrane potential assay as previously described (Molinski et al., 2015). Briefly, the cells were loaded with blue membrane potential dye (Molecular Devices), which can detect changes in transmembrane potential. The plate was then read in a fluorescence plate reader (BioTek Synergy H1) for baseline levels followed by CFTR stimulation using the cAMP agonist forskolin (10 μM; Sigma), DMSO vehicle was used as a negative control. CFTR-mediated depolarization of the plasma membrane was detected as an increase in fluorescence and hyperpolarization (or repolarization) as a decrease. […] FLIPR™ (Fluorescence Imaging Plate Reader) is a functional system that allows measuring changes in membrane potential by a fluorescent indicator. […]

T1 sequence (P13569 with tags, fused parts or gaps DEL1292-1321): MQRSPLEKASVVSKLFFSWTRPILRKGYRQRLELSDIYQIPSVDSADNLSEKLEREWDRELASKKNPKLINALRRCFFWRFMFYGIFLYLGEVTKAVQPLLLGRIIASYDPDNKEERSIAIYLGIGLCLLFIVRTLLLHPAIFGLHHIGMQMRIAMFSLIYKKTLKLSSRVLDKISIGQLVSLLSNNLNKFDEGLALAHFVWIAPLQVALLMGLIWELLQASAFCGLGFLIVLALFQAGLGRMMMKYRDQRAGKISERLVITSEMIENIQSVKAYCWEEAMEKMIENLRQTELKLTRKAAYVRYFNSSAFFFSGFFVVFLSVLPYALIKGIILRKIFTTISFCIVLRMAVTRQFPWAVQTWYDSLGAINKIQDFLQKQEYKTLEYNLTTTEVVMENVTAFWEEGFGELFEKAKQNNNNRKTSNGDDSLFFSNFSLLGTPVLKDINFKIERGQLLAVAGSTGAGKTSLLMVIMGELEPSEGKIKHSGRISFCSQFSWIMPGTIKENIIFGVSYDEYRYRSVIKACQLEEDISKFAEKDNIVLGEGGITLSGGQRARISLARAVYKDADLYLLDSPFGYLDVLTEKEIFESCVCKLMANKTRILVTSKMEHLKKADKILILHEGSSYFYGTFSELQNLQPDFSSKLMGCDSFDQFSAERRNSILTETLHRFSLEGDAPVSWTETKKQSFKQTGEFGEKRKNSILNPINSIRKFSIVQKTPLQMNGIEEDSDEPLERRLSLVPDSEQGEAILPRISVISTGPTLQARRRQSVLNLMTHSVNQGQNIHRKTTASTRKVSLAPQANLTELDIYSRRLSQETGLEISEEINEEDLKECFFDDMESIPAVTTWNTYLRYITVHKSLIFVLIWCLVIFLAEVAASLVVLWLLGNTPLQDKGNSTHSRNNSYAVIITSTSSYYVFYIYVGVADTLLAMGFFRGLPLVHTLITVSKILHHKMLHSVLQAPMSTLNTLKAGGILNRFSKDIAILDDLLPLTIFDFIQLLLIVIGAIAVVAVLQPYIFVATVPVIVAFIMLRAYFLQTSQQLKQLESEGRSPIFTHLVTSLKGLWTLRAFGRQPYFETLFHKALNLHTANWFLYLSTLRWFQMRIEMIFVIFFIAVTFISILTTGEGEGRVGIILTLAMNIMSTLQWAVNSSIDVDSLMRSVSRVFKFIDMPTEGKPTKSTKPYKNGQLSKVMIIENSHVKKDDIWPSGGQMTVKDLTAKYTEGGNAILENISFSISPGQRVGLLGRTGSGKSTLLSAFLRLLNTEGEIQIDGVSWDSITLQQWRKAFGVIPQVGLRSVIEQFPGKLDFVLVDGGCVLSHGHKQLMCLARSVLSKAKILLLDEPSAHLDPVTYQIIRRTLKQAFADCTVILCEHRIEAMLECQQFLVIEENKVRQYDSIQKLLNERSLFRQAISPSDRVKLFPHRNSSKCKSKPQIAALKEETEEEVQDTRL

channel activation: 50 % of WT
SMILES: CC(C)(C)c1cc(C(C)(C)C)c(NC(=O)c2c[nH]c3ccccc3c2=O)cc1O [VX-770, N-(2,4-Di-tert-butyl-5-hydroxyphenyl)-4-oxo-1,4-dihydroquinoline-3-carboxamide]
